Laboratory results reported in US20230263822A1, “MODULATION OF FACTOR 11 EXPRESSION” (Ionis Pharmaceuticals, Inc., priority 2008, published 2023).
Where two headings read alike, the source gives them in different places. Strand notation (5' to 3'): a small letter for the sugar, then the base; units joined by * are phosphorothioate-linked, units joined directly phosphodiester-linked; [ ] holds rarer units or linkages, { } end groups; capitals alone tell only the bases. e = 2'-O-(2-methoxyethyl) (MOE); [5mC] = 5-methylcytosine; d = 2'-deoxy (DNA)

What was measured:
human Factor 11 mRNA = test: Dose-dependent inhibition of human Factor 11 in HepG2 cells, electroporation 375-12,000 nM (Example 32); type: cell-based; conditions: for Percent inhibition of Factor 11 mRNA at 375 nM / Percent inhibition of Factor 11 mRNA at 750 nM / IC50: electroporation; for Percent inhibition of Factor 11 mRNA at 375 nM / Percent inhibition of Factor 11 mRNA at 750 nM / Percent inhibition of Factor 11 mRNA at 1,500 nM / Percent inhibition of Factor 11 mRNA at 3,000 nM / Percent inhibition of Factor 11 mRNA at 6,000 nM / Percent inhibition of Factor 11 mRNA at 12,000 nM: approx. 16 hours, relative to untreated control cells; for Percent inhibition of Factor 11 mRNA at 1,500 nM: electroporation, 1,500 nM; for Percent inhibition of Factor 11 mRNA at 3,000 nM: electroporation, 3,000 nM; for Percent inhibition of Factor 11 mRNA at 6,000 nM: electroporation, 6,000 nM; for Percent inhibition of Factor 11 mRNA at 12,000 nM: electroporation, 12,000 nM; for IC50: Factor 11 mRNA expression
Method: These gapmers were tested at various doses in HepG2 cells. Cells were plated at a density of 20,000 cells per well and transfected using electroporation with 375 nM, 750 nM, 1,500 nM, 3,000 nM, 6,000 nM and 12,000 nM concentrations of antisense oligonucleotide, as specified in Table 47. After a treatment period of approximately 16 hours, RNA was isolated from the cells and Factor 11 mRNA levels were measured by quantitative real-time PCR. Human Factor 11 primer probe set RTS 2966 was used to measure mRNA levels. Factor 11 mRNA levels were adjusted according to total RNA content, as measured by RIBOGREEN. Results are presented as percent inhibition of Factor 11, relative to untreated control cells.
ISIS 416850, ISIS 416858, ISIS 445522, and ISIS 445531 (see Table 45 above) were re-tested in vitro along with the microwalk gapmers under the same conditions described above.
The first two listed gapmers in Table 47 are the original gapmers (ISIS 416850 and ISIS 416858) from which the remaining gapmers were designed via microwalk and are designated by an asterisk.

Factor 11 mRNA = Factor 11 mRNA in cynomolgus monkey liver, day 55 (Example 46); type: in vivo, cynomolgus monkeys; conditions: 25 mg/kg subcutaneously, primer probe set LTS00301
Method: (§1) Groups, each consisting of two male and two female monkeys, were injected subcutaneously with 25 mg/kg of ISIS 416850, ISIS 449709, ISIS 445522, ISIS 449710, ISIS 449707, ISIS 449711, ISIS 449708, 416858, and ISIS 445531. Antisense oligonucleotide was administered to the monkeys at 25 mg/kg three times per week for week 1 and 25 mg/kg twice per week for weeks 2 to 8. A control group, consisting of two male and two female monkeys was injected subcutaneously with PBS according to the same dosing regimen. Body weights were taken 14 days and 7 days before the start of treatment and were then measured weekly throughout the treatment period. Blood samples were collected 14 days and 5 days before the start of treatment and subsequently several times during the dosing regimen for PT and aPTT measurements, and measurement of various hematologic factors. On day 55, the monkeys were euthanized by exsanguination while under deep anesthesia, and organs harvested for further analysis.
On day 55, RNA was extracted from liver tissue for real-time PCR analysis of Factor 11 using primer probe set LTS00301. Results are presented as percent inhibition of Factor 11, relative to PBS control.

Factor 11 protein = Factor 11 protein in monkey plasma by sandwich ELISA (Example 46); type: in vivo, cynomolgus monkeys; conditions: 25 mg/kg subcutaneously
Method: as §1
Plasma samples from all monkey groups taken on different days were analyzed by a sandwich-style ELISA assay (Affinity Biologicals Inc.) using an affinity-purified polyclonal anti-Factor 11 antibody as the capture antibody and a peroxidase-conjugated polyclonal anti-Factor 11 antibody as the detecting antibody. Monkey plasma was diluted 1:50 for the assay. Peroxidase activity was expressed by incubation with the substrate o-phenylenediamine. The color produced was quantified using a microplate reader at 490 nm and was considered to be proportional to the concentration of Factor 11 in the samples.
The results are presented in Table 147, expressed as percentage reduction relative to that of the PBS control.

[1] = Viscosity of ISIS antisense oligonucleotides, micro-viscometer at 25 °C (Example 47); type: physicochemical; conditions: for Concentration: concentration of the viscosity sample, UV reading at 260 nM at 85° C.; for Viscosity: in water, micro-viscometer at 25° C., at the concentration of the same line
Method: The viscosity of antisense oligonucleotides targeting human Factor 11 was measured with the aim of screening out antisense oligonucleotides which have a viscosity more than 40 cP at a concentration of 165-185 mg/mL.
ISIS oligonucleotides (32-35 mg) were weighed into a glass vial, 120 μL of water was added and the antisense oligonucleotide was dissolved into solution by heating the vial at 50° C. Part of (75 μL) the pre-heated sample was pipetted to a micro-viscometer (Cambridge). The temperature of the micro-viscometter was set to 25° C. and the viscosity of the sample was measured. Another part (20 μL) of the pre-heated sample was pipetted into 10 mL of water for UV reading at 260 nM at 85° C. (Cary UV instrument).

[2] = mouse, in vivo, sc, 50 mg/kg
[3] = mouse, in vivo, sc, 50 mg/kg; remark: listed apart in the source
[4] = mouse, in vivo, sc, 50 mg/kg; remark: listed apart in the source
[5] = rat, in vivo, sc, 50 mg/kg
[6] = rat, in vivo, sc, 50 mg/kg; remark: listed apart in the source
[7] = rat, in vivo, sc, 50 mg/kg; remark: listed apart in the source

449707 (antisense e[5mC]*eA*e[5mC]*eA*dG*dT*dT*dT*d[5mC]*dT*dG*dG*e[5mC]*eA*eG*eG) [compound 449707]
Percent inhibition of Factor 11 mRNA at 375 nM (human Factor 11 mRNA): 7%
Percent inhibition of Factor 11 mRNA at 750 nM (human Factor 11 mRNA): 35%
Percent inhibition of Factor 11 mRNA at 1,500 nM (human Factor 11 mRNA): 63%
Percent inhibition of Factor 11 mRNA at 3,000 nM (human Factor 11 mRNA): 73%
Percent inhibition of Factor 11 mRNA at 6,000 nM (human Factor 11 mRNA): 85%
Percent inhibition of Factor 11 mRNA at 12,000 nM (human Factor 11 mRNA): 91%
IC50 (human Factor 11 mRNA): 1.26 µM
% inhibition of Factor 11 mRNA in liver relative to the PBS control (Factor 11 mRNA): 47%
Inhibition of Factor 11 protein relative to the PBS control (percentage reduction) (Factor 11 protein; Day 10, plasma): 16%
Inhibition of Factor 11 protein relative to the PBS control (percentage reduction) (Factor 11 protein; Day 17, plasma): 19%
Inhibition of Factor 11 protein relative to the PBS control (percentage reduction) (Factor 11 protein; Day 24, plasma): 21%
Inhibition of Factor 11 protein relative to the PBS control (percentage reduction) (Factor 11 protein; Day 31, plasma): 29%
Inhibition of Factor 11 protein relative to the PBS control (percentage reduction) (Factor 11 protein; Day 38, plasma): 28%
Inhibition of Factor 11 protein relative to the PBS control (percentage reduction) (Factor 11 protein; Day 45, plasma): 35%
Inhibition of Factor 11 protein relative to the PBS control (percentage reduction) (Factor 11 protein; Day 52, plasma): 29%
Inhibition of Factor 11 protein relative to the PBS control (percentage reduction) (Factor 11 protein; Day 55, plasma): 32%
Inhibition of Factor 11 protein relative to the PBS control (percentage reduction) (Factor 11 protein; Day −5, plasma): 0%
Inhibition of Factor 11 protein relative to the PBS control (percentage reduction) (Factor 11 protein; Day −14, plasma): 0%
Concentration [1]: 166 mg/mL
Viscosity [1]: 7 cP

449711 (antisense eA*e[5mC]*dA*dG*dT*dT*dT*d[5mC]*dT*dG*dG*d[5mC]*eA*eG) [compound 449711]
Percent inhibition of Factor 11 mRNA at 375 nM (human Factor 11 mRNA): 6%
Percent inhibition of Factor 11 mRNA at 750 nM (human Factor 11 mRNA): 14%
Percent inhibition of Factor 11 mRNA at 1,500 nM (human Factor 11 mRNA): 1%
Percent inhibition of Factor 11 mRNA at 3,000 nM (human Factor 11 mRNA): 7%
Percent inhibition of Factor 11 mRNA at 6,000 nM (human Factor 11 mRNA): 32%
Percent inhibition of Factor 11 mRNA at 12,000 nM (human Factor 11 mRNA): 52%
IC50 (human Factor 11 mRNA): 11 µM
% inhibition of Factor 11 mRNA in liver relative to the PBS control (Factor 11 mRNA): 0%
Inhibition of Factor 11 protein relative to the PBS control (percentage reduction) (Factor 11 protein; Day 10, plasma): 5%
Inhibition of Factor 11 protein relative to the PBS control (percentage reduction) (Factor 11 protein; Day 17, plasma): 3%
Inhibition of Factor 11 protein relative to the PBS control (percentage reduction) (Factor 11 protein; Day 24, plasma): 6%
Inhibition of Factor 11 protein relative to the PBS control (percentage reduction) (Factor 11 protein; Day 31, plasma): 9%
Inhibition of Factor 11 protein relative to the PBS control (percentage reduction) (Factor 11 protein; Day 38, plasma): 2%
Inhibition of Factor 11 protein relative to the PBS control (percentage reduction) (Factor 11 protein; Day 45, plasma): 4%
Inhibition of Factor 11 protein relative to the PBS control (percentage reduction) (Factor 11 protein; Day 52, plasma): 3%
Inhibition of Factor 11 protein relative to the PBS control (percentage reduction) (Factor 11 protein; Day 55, plasma): 5%
Inhibition of Factor 11 protein relative to the PBS control (percentage reduction) (Factor 11 protein; Day −5, plasma): 1%
Inhibition of Factor 11 protein relative to the PBS control (percentage reduction) (Factor 11 protein; Day −14, plasma): 0%
Concentration [1]: 209 mg/mL
Viscosity [1]: 6 cP

ISIS 416859: MOE gapmer, nucleobases 1275 to 1318 of SEQ ID NO: 1 (Table 8) (antisense GACGGCATTGGTGCACAGTT; MOE gapmer, wing and gap sizes not given here)
ALT [2]: 214 IU/L
AST [2]: 293 IU/L
Bilirubin [2]: 0.20 mg/dL
Cholesterol [2]: 160 mg/dL
BUN [3]: 18 mg/dL
HCT [4]: 49%
Lymphocyte [4]: 4363 cells/μL
Neutrophil [4]: 1561 cells/μL
Platelets [4]: 826 10^3/μL
RBC [4]: 10 10^6/μL
WBC [4]: 6 10^3/μL
hemoglobin [4]: 15 g/dL
monocytes [4]: 229 cells/μL
ALT [5]: 114 IU/L
AST [5]: 206 IU/L
Albumin [5]: 5
Bilirubin [5]: 0.21 mg/dL
BUN [6]: 24 mg/dL
Creatinine [6]: 44 mg/dL
Total urine protein [6]: 144 mg/dL
Urine protein/creatinine ratio [6]: 3.3
HCT [7]: 45%
Lymphocyte [7]: 14323
Neutrophil [7]: 1414
Platelets [7]: 853
RBC [7]: 7.8 10^6/μL
WBC [7]: 16 10^3/μL
hemoglobin [7]: 14.0 g/dL
